pIC50: −log10 of the molar value.
Assays:
Plasmodium falciparum [1] = assay: Antimalarial activity against Plasmodium falciparum 3D7 infected in ARh+ human erythrocytes at 0.1 uM after 42 to 48 hrs by Picogreen staining-based 96 well microplate assay; assay type: functional; details: read-out: GI
Plasmodium falciparum [2] = assay: Antimalarial activity against Plasmodium falciparum 3D7 infected in ARh+ human erythrocytes at 1 uM after 42 to 48 hrs by Picogreen staining-based 96 well microplate assay; assay type: functional; details: read-out: GI
Plasmodium falciparum [3] = assay: Antimalarial activity against Plasmodium falciparum 3D7 infected in ARh+ human erythrocytes after 42 to 48 hrs by Picogreen staining-based 96 well microplate assay; assay type: functional, organism-based
Plasmodium falciparum [4] = assay: Antimalarial activity against Plasmodium falciparum 3D7 infected in ARh+ human erythrocytes at 0.01 uM after 42 to 48 hrs by Picogreen staining-based 96 well microplate assay; assay type: functional; details: read-out: GI
Plasmodium falciparum [5] = assay: Antimalarial activity against Plasmodium falciparum 3D7 infected in ARh+ human erythrocytes at 10 uM after 42 to 48 hrs by Picogreen staining-based 96 well microplate assay; assay type: functional; details: read-out: GI
[6] = molecular target: Voltage-gated inwardly rectifying potassium channel KCNH2 (Homo sapiens, UniProt Q12809); assay: Inhibition of human ERG expressed in Xenopus laevis oocytes by two-electrode voltage clamp assay; assay type: cell-based
hERG (KCNH2) = assay: Selectivity index, ratio of IC50 for inhibition of human ERG expressed in Xenopus laevis oocytes to IC50 for Plasmodium falciparum 3D7; assay type: toxicity, cell-based; details: read-out: Ratio IC50
Plasmodium falciparum [7] = assay: Antiplasmodial activity against Plasmodium falciparum K1 at 0.002 to 100 ug/ml by serial drug dilution assay; assay type: functional, organism-based

Sequence of Voltage-gated inwardly rectifying potassium channel KCNH2 (Q12809 whole entry): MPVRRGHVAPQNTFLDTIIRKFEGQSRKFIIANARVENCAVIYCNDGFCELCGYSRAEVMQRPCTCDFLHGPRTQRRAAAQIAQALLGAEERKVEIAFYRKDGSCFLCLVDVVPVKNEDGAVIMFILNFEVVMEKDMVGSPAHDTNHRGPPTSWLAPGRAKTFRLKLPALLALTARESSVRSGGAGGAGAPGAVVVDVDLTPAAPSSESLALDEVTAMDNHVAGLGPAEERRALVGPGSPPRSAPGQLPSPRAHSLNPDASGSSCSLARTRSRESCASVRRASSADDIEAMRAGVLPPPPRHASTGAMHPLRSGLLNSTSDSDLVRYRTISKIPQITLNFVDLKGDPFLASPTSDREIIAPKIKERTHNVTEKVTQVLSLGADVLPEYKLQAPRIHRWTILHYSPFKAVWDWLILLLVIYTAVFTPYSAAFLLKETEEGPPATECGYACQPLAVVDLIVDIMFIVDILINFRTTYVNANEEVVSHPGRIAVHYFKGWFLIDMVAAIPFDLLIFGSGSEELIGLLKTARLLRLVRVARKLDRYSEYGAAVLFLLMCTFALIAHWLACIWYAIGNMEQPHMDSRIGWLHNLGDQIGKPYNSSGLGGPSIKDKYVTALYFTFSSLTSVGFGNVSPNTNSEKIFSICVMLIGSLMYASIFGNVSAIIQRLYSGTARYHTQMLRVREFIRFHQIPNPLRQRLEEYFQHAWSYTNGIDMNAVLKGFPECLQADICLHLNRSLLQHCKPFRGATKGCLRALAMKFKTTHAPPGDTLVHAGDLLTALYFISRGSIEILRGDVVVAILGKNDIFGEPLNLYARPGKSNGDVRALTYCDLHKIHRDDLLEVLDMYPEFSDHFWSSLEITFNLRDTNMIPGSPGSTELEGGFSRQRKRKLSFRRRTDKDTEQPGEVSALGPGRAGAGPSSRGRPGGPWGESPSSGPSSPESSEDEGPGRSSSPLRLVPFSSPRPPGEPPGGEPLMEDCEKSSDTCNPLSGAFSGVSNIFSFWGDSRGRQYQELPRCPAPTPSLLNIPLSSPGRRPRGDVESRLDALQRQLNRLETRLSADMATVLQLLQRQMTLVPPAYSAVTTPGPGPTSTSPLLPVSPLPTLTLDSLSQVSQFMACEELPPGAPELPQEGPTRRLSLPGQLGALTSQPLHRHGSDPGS

COc1ccc(CCN2CCC(Nc3nc4ccccc4n3Cc3ccc(F)cc3)C2)cc1 (stereo unspecified) showed an inhibition of growth at 0.1 µM (Plasmodium falciparum [1]) of 0%, an inhibition of growth at 1 µM (Plasmodium falciparum [2]) of 14% and a pIC50 (Plasmodium falciparum [3]) of 5.27. For the same compound, the inhibition of growth at 0.01 µM (Plasmodium falciparum [4]) was 0% and the inhibition of growth at 10 µM (Plasmodium falciparum [5]) was 67%.

In the case of COc1ccc(CCN2CCN(c3nc4ccccc4n3Cc3ccc(F)cc3)CC2)cc1, the inhibition of growth at 0.1 µM (Plasmodium falciparum [1]) was 0%, the inhibition of growth at 1 µM (Plasmodium falciparum [2]) was 21% and the pIC50 (Plasmodium falciparum [3]) was 5.19. For the same compound, the inhibition of growth at 0.01 µM (Plasmodium falciparum [4]) was 0% and the inhibition of growth at 10 µM (Plasmodium falciparum [5]) was 57%.

Compound CCCCCCCCCCn1c(NC2CCN(CCc3ccc(OC)cc3)CC2)nc2ccccc21 has an inhibition of growth at 0.1 µM (Plasmodium falciparum [1]) of 77%, an inhibition of growth at 1 µM (Plasmodium falciparum [2]) of 100% and a pIC50 [6] of 5.68. For the same compound, the selectivity ratio (hERG (KCNH2)) was 18.4, the pIC50 (Plasmodium falciparum [3]) was 6.95 to 7.30 and the inhibition of growth at 0.01 µM (Plasmodium falciparum [4]) was 0%. The inhibition of growth at 10 µM (Plasmodium falciparum [5]) was 100%.

For CCCCCCCCn1c(NC2CCN(CCc3ccc(OC)cc3)CC2)nc2ccccc21, the inhibition of growth at 0.1 µM (Plasmodium falciparum [1]) was 93%, the inhibition of growth at 1 µM (Plasmodium falciparum [2]) was 96% and the pIC50 [6] was 5.49. It also gave a selectivity ratio (hERG (KCNH2)) of 110, a pIC50 (Plasmodium falciparum [3]) of 7.53 to 7.54 and an inhibition of growth at 0.01 µM (Plasmodium falciparum [4]) of 4%. For the same compound, the inhibition of growth at 10 µM (Plasmodium falciparum [5]) was 100%.

In the case of COc1ccc(CCN2CCC(Nc3nc4ccccc4n3CC3CCCCC3)CC2)cc1, the inhibition of growth at 0.1 µM (Plasmodium falciparum [1]) was 80%, the inhibition of growth at 1 µM (Plasmodium falciparum [2]) was 100% and the pIC50 [6] was 8.49. The selectivity ratio (hERG (KCNH2)) was 0.1, the pIC50 (Plasmodium falciparum [3]) was 7.36 to 7.40 and the inhibition of growth at 0.01 µM (Plasmodium falciparum [4]) was 1%. For the same compound, the inhibition of growth at 10 µM (Plasmodium falciparum [5]) was 100%.

COc1ccc(CCN2CCC(Nc3nc4ccccc4n3Cc3ccc(F)cc3F)CC2)cc1 showed an inhibition of growth at 0.1 µM (Plasmodium falciparum [1]) of 55%, an inhibition of growth at 1 µM (Plasmodium falciparum [2]) of 100% and a pIC50 [6] of 6.75. It also gave a selectivity ratio (hERG (KCNH2)) of 1.7, a pIC50 (Plasmodium falciparum [3]) of 6.99 to 7.07 and an inhibition of growth at 0.01 µM (Plasmodium falciparum [4]) of 0%. The inhibition of growth at 10 µM (Plasmodium falciparum [5]) was 80%.

For COc1ccc(CCN2CCC(Nc3nc4ccccc4[nH]3)CC2)cc1, the inhibition of growth at 0.1 µM (Plasmodium falciparum [1]) was 52%, the inhibition of growth at 1 µM (Plasmodium falciparum [2]) was 100% and the pIC50 [6] was 6.79. It also gave a selectivity ratio (hERG (KCNH2)) of 2.1, a pIC50 (Plasmodium falciparum [3]) of 7.10 to 7.11 and an inhibition of growth at 0.01 µM (Plasmodium falciparum [4]) of 6%. The inhibition of growth at 10 µM (Plasmodium falciparum [5]) was 100%.

Compound COc1ccc(CCN2CCC(Nc3nc4ccccc4n3CCC(C)C)CC2)cc1 has an inhibition of growth at 0.1 µM (Plasmodium falciparum [1]) of 54%, an inhibition of growth at 1 µM (Plasmodium falciparum [2]) of 100% and a pIC50 [6] of 6.67. It also gave a selectivity ratio (hERG (KCNH2)) of 7.6, a pIC50 (Plasmodium falciparum [3]) of 7.04 to 7.55 and an inhibition of growth at 0.01 µM (Plasmodium falciparum [4]) of 0%. It also gave an inhibition of growth at 10 µM (Plasmodium falciparum [5]) of 97%.

Work on COc1ccc(CCN2CCN(Cc3nc4ccccc4n3Cc3ccc(F)cc3)CC2)cc1 yielded an inhibition of growth at 0.1 µM (Plasmodium falciparum [1]) of 0%, an inhibition of growth at 1 µM (Plasmodium falciparum [2]) of 12% and a pIC50 (Plasmodium falciparum [3]) of 5.33. For the same compound, the inhibition of growth at 0.01 µM (Plasmodium falciparum [4]) was 3% and the inhibition of growth at 10 µM (Plasmodium falciparum [5]) was 72%.

Work on CN(C)CCC=C1c2ccccc2CCc2ccccc21 [AMITRIPTYLINE] yielded a pIC50 (Plasmodium falciparum [7]) of 6.30.

Work on COc1ccc(CCN2CCC(Nc3nc4ccccc4n3Cc3ccc(F)cc3)CC2)cc1 [ASTEMIZOLE] yielded an inhibition of growth at 0.1 µM (Plasmodium falciparum [1]) of 37%, an inhibition of growth at 1 µM (Plasmodium falciparum [2]) of 91% and a pIC50 (Plasmodium falciparum [3]) of 6.77 to 6.79. For the same compound, the inhibition of growth at 0.01 µM (Plasmodium falciparum [4]) was 0% and the inhibition of growth at 10 µM (Plasmodium falciparum [5]) was 99%.

For OCCN1CCN(CCCN2c3ccccc3Sc3ccc(C(F)(F)F)cc32)CC1 [FLUPHENAZINE], the pIC50 (Plasmodium falciparum [7]) was 6.30.

With CNCCC=C1c2ccccc2CCc2ccccc21 [NORTRIPTYLINE] the pIC50 (Plasmodium falciparum [7]) was 6.30.

CN(C)CCCN1c2ccccc2Sc2ccccc21 [PROMAZINE] was tested, and the pIC50 (Plasmodium falciparum [7]) was 6.30.

In the case of Fc1ccc(Cn2c(NC3CCNCC3)nc3ccccc32)cc1 [TECASTEMIZOLE], the inhibition of growth at 0.1 µM (Plasmodium falciparum [1]) was 0%, the inhibition of growth at 1 µM (Plasmodium falciparum [2]) was 17% and the pIC50 (Plasmodium falciparum [3]) was 5.64. The inhibition of growth at 0.01 µM (Plasmodium falciparum [4]) was 5% and the inhibition of growth at 10 µM (Plasmodium falciparum [5]) was 100%.

— ChEMBL document CHEMBL4177615 (Bioorg Med Chem, 2017)
